Literature values in US20070014834A1, “Apparatus and methods of improved delivery of orally-administered therapeutic substances” (priority 2005, published 2007).

Legend:
[1] = tested on: capsaicin-induced cough; details: for concentration of capsaicin required to produce a cough, compared with placebo: 10 healthy volunteers
[2] = tested on: human vagus nerve
[3] = tested on: guinea-pig vagus nerve
[4] = tested on: citric acid-induced cough; details: guinea-pigs in vivo

SMILES	concentration of capsaicin required to produce a cough, compared with placebo [1]	inhibition of capsaicin-induced sensory nerve depolarization [2]	inhibition of capsaicin-induced sensory nerve depolarization [3]	inhibition of citric acid-induced cough [4]	effectiveness in stopping persistent coughs compared with codeine ([1]; compared with codeine)	suppression of capsaicin-induced cough ([1]; randomized, double-blind, placebo-controlled study in man)
COc1ccc2c3c1O[C@H]1[C@@H](O)C=C[C@H]4[C@@H](C2)N(C)CC[C@@]341 [codeine]	only marginally higher					
Cn1cnc2c1c(=O)[nH]c(=O)n2C [theobromine]	around one third higher	directly inhibits	directly inhibits	effectively inhibits	nearly a third more effective	suppresses
